Earlier results as cited in US20210205361A1, “COMPOSITIONS AND METHODS FOR CANCER IMMUNOTHERAPY” (priority 2016, published 2021).

Assays:
[1] = tested on: advanced, treatment-refractory malignancies; details: subjects with non-small cell lung cancer (NSCLC)
[2] = tested on: diffuse large B-cell lymphoma (DLBCL)
recurrent multifocal GBM = details: two pediatric patients refractory to standard therapies

In the case of “BMS-936558: fully human IgG4 monoclonal antibody targeting PD-1”, the clinical activity [1] is listed as “substantial clinical activity”.

In the case of “CT-011: humanized IgG1 monoclonal antibody against PD-1”, the “subjects progression-free at the end of the follow-up period” value ([2]; DLBCL subjects after autologous stem cell transplantation, control group 47%) is given as 70%, the subjects alive ([2]; DLBCL subjects after autologous stem cell transplantation, control group 62%) is given as 82% and the “activity of natural killer cells” value ([2]; finding of the phase II trial) is given as “augments”.

In the case of “nivolumab: immune checkpoint inhibitor, anti-PD1 antibody”, the response (recurrent multifocal GBM) is listed as “remarkable and durable responses”.
